The values that follow are results of earlier work, collected in patent US8338423B2, “Compositions for the treatment of hyperphenylalaninemia” (Universidad de Zaragoza, priority 2007, dated 2012).

In this series the target is T1, wt-PAH (Homo sapiens, UniProt P00439).
T1 construct: made in house; host or cells: E. coli
T1 sequence (P00439 1-452): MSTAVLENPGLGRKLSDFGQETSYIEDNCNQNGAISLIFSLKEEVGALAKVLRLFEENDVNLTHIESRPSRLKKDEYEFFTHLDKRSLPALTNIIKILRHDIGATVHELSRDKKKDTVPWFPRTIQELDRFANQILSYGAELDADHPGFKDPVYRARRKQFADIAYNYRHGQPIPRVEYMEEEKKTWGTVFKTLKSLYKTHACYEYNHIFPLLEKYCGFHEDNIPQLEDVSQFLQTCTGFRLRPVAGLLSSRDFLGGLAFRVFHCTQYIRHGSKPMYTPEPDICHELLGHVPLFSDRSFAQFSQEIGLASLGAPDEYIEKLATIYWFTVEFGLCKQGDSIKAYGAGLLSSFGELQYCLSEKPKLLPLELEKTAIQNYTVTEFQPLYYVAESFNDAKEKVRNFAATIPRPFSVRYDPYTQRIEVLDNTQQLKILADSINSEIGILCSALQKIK
Conditions: comparison values; read-out: Kl of likely physiological inhibitors of PAH; cited from earlier work.

Regarding `C[C@H](O)[C@H](O)C1=Nc2c(nc(N)[nH]c2=O)NC1` [BH2], the Ki was ~17 µM. For `CC(O)C(O)C1CNc2c(nc(N)[nH]c2=O)N1` (stereo not drawn) [Compound 7S-BH4], the Ki was 2 to 5 µM.
